The values that follow come from article PMC3157558, “Huprines as a new family of dual acting trypanocidal–antiplasmodial agents” (Bioorganic & Medicinal Chemistry, 2011).

As usually defined, the IC50 is the point on the concentration scale where inhibition reaches its midpoint. For orientation: IC90 means the point of the concentration-response curve where the effect stands at 90%.

Series [1] concerns rat skeletal myoblast L6 cells. Nature of the series: Cytotoxic activity against rat skeletal myoblast L6 cells (Alamar Blue). In kind it is cell-based. Conditions: 6 days incubation, mean of triplicate ± SEM. How it is done:
Cytotoxicity against mammalian cells was assessed using microtitre plates following a described procedure.[41] Briefly, L6 cells (a rat skeletal muscle line) were seeded at 1 × 10^4 ml^−1 in 200 μL of growth medium containing different compound concentrations. The plates were incubated for 6 days at 37 °C and 20 μL Alamar Blue (Biosource UK Ltd) was then added to each well. After a further 8 h incubation, the fluorescence was determined using a Gemini fluorescent plate reader (Molecular Devices).

The next series can be described thus: in vitro. Conditions: 427, rat. In kind it is cell-based, Trypanosoma brucei.
Series [2] deals with bloodstream form T. brucei. Nature of the series: microbe, parasite or virus in culture. To be noted: for SI (selectivity index, ratio of cytotoxic to trypanocidal IC50 values): IC50 against L6 cells/IC50 against T. brucei. Type of series: cell-based, Trypanosoma brucei.
Experimental: (§1) Trypanocidal activity was assessed by growing parasites for 48 h in the presence of various drug concentrations and determining the levels which inhibited growth by 50% (IC50) and 90% (IC90). In the case of untreated cultures, cell densities increased from 0.25 × 10^5 to 1 × 10^6 over this period. Cell densities at each drug concentration were determined using a hemocytometer and drug sensitivity was expressed as a percentage of growth of control cells.
The next series has as its system acetylcholinesterase. Also on record: method as in PMID 10464010, PMID 11101357. Conditions: cited from earlier work.
Series [3] concerns Alzheimer's disease related brain neuropathology. Details: method as in PMID 20689242. Conditions: transgenic mouse model; cited from earlier work.
Series [4] deals with memory and learning activities. To be noted: cited from earlier work.
[5] abbreviates: Trypanosoma brucei, bloodstream form T. brucei, pH 7.4, 48 h growth, concentration inhibiting growth by 90%, mean of triplicate ± SEM, read-out: T. brucei IC90.
Setting [6] is: Trypanosoma brucei, bloodstream form T. brucei, pH 7.4, 48 h growth, mean of triplicate experiments ± SEM, read-out: T. brucei IC50.
The mark [7] stands for this setting: Trypanosoma brucei, 48 h, pH 7.4, read-out: T. brucei IC50.
Where [8] appears, read: Trypanosoma brucei, 48 h, pH 7.4, read-out: T. brucei IC90.
[9] abbreviates: bloodstream form T. brucei, pH 7.4, 48 h growth, concentration inhibiting growth by 90%, mean of triplicate ± SEM, read-out: T. brucei IC90.
Where [10] appears, read: bloodstream form T. brucei, pH 7.4, 48 h growth, mean of triplicate experiments ± SEM, read-out: T. brucei IC50.

Each structure is given as a SMILES string. Where a name gives a salt, the structure may show the parent alone. Read-outs that look alike come from different tables or passages of the source.

Experimental for in vitro: as §1

Regarding `CC1=CC2Cc3nc4cc(Cl)ccc4c(N)c3C(C1)C2` (stereo not drawn) [huprine 3], the IC50 amounted to 7.8 ± 0.47 µM in series [1] (144 h) and 0.61 ± 0.03 µM in series [2] (setting [6]). For the same compound, the selectivity ratio in the series “in vitro” is 12.8. Besides, the IC90 in series [2] (setting [5]) turned out to be 2.94 ± 0.2 µM. In addition, in the series with acetylcholinesterase, the “acetylcholinesterase inhibitory potency (rank in words)” value was “most potent acetylcholinesterase inhibitors”.
As to `CCC1=CC2Cc3nc4cc(Cl)ccc4c(N)c3[C@@H](C1)C2` [huprine 4], the IC50 in series [1] (144 h) was 12.5 ± 0.4 µM; in series [2] (setting [6]), 0.84 ± 0.06 µM. Also, in series [3], the “effect on Alzheimer's disease related brain neuropathology” value is recorded as “ameliorate”. In addition, the “adverse effects in behavioural studies” value in series [4] (behavioural studies in mice) is “did not induce adverse effects”. Further, in series [4] (middle aged mice), the “effect on memory and learning activities” value was “ameliorate memory and learning activities”. The 90% effect concentration (IC90) in series [2] (setting [5]) amounted to 1.76 ± 0.2 µM. Further, the “acetylcholinesterase inhibitory potency (rank in words)” value in the series with acetylcholinesterase is “most potent acetylcholinesterase inhibitors”.
Regarding `CC(C)C1=CC2Cc3nc4ccccc4c(N)c3C(C1)C2` (stereo not drawn) [huprine 5], the IC50 in series [2] (setting [7]) is 2.06 ± 0.44 µM. In series [2] (setting [8]), the IC90 is 4.76 ± 0.82 µM.
Regarding `C=CCC1=CC2Cc3nc4ccccc4c(N)c3C(C1)C2` (stereo not drawn) [huprine 6], the IC90 in series [2] (setting [5]) worked out at 8.52 ± 0.19 µM. Further, in series [2] (setting [6]), the IC50 stood at 4.08 ± 0.45 µM.
With `CC(C)C1=CC2Cc3nc4cc(Cl)ccc4c(N)c3C(C1)C2` (stereo not drawn) [huprine 8, 12-Amino-3-chloro-6,7,10,11-tetrahydro-9-isopropyl-7,11-methanocycloocta[b]quinoline hydrochloride], in series [2] (setting [9]), the IC90 is 4.34 ± 0.03 µM. Also, the IC50 in series [2] (setting [10]) came to 2.45 ± 0.37 µM.
In the case of `C=CCC1=CC2Cc3nc4cc(Cl)ccc4c(N)c3C(C1)C2` (stereo not drawn) [huprine 9, 9-Allyl-12-amino-3-chloro-6,7,10,11-tetrahydro-7,11-methanocycloocta[b]quinoline hydrochloride], the IC50 came to 12.4 ± 0.4 µM in series [1] (144 h) and 0.76 ± 0.07 µM in series [2] (setting [6]). Besides, the selectivity ratio in the series “in vitro” (IC50 against L6 cells/IC50 against T. brucei, read-out: SI (selectivity index, ratio of cytotoxic to trypanocidal IC50 values)) amounted to 16.3. In addition, in series [2] (setting [5]), the IC90 was 2.87 ± 0.18 µM.
Turning to `CC(C)C1=CC2Cc3nc4cccc(F)c4c(N)c3C(C1)C2` (stereo not drawn) [huprine 10, 12-Amino-1-fluoro-6,7,10,11-tetrahydro-9-isopropyl-7,11-methanocycloocta[b]quinoline hydrochloride], the IC90 in series [2] (setting [9]) was determined as 7.75 ± 0.23 µM. Further, the IC50 in series [2] (setting [10]) worked out at 2.6 ± 0.55 µM.
Regarding `C=CCC1=CC2Cc3nc4cccc(F)c4c(N)c3C(C1)C2` (stereo not drawn) [huprine 11, 9-Allyl-12-amino-1-fluoro-6,7,10,11-tetrahydro-7,11-methanocycloocta[b]quinoline hydrochloride], the IC50 in series [2] (setting [7]) stood at 3.62 ± 0.54 µM. Also, in series [2] (setting [8]), the IC90 is 8.73 ± 0.69 µM.
On to `CCC1=CC2Cc3nc4ccccc4c(N)c3C(C1)C2` (stereo not drawn) [huprine 12], for which the figures for the IC50 in series [1] and in series [2] (setting [10]) were 15.6 ± 1.6 µM and 1.29 ± 0.16 µM, respectively. The “SI (selectivity index, ratio of cytotoxic to trypanocidal IC50 values)” value in series [2] came to 12.1. Also, the IC90 in series [2] (setting [9]) came to 4.53 ± 0.16 µM.
`CC(C)(C)C1=CC2Cc3nc4ccccc4c(N)c3C(C1)C2` (stereo not drawn) [huprine 14]: the figures for the IC50 in series [1] and in series [2] (setting [10]) were 11.6 ± 0.5 µM and 0.88 ± 0.26 µM, respectively. Besides, the “SI (selectivity index, ratio of cytotoxic to trypanocidal IC50 values)” value in series [2] was found to be 13.2. The IC90 in series [2] (setting [9]) was 3.05 ± 0.03 µM. In addition, the “acetylcholinesterase inhibitory potency (rank in words)” value with acetylcholinesterase is listed as “least potent acetylcholinesterase inhibitors”.
In the case of `CC1=CC2Cc3nc4cc(C)ccc4c(N)c3C(C1)C2` (stereo not drawn) [huprine 17], the figures for the IC50 in series [1] and in series [2] (setting [10]) were 20 ± 0.5 µM and 1.04 ± 0.05 µM, respectively. For the same compound, the “SI (selectivity index, ratio of cytotoxic to trypanocidal IC50 values)” value in series [2] is given as 19.2. Also, in series [2] (setting [9]), the IC90 was 3.31 ± 0.59 µM.
For `CCC1=CC2Cc3nc4cccc(Cl)c4c(N)c3C(C1)C2` (stereo not drawn) [huprine 18], in that order: 21.3 ± 1.3 µM, 1.36 ± 0.19 µM, 15.7 and 3.11 ± 0.29 µM.
`CCC1=CC2Cc3nc4cccc(C)c4c(N)c3C(C1)C2` (stereo not drawn) [huprine 20]: in series [2] (setting [9]), the IC90 was 8.86 ± 0.15 µM. Also, in series [2] (setting [10]), the IC50 stood at 5.28 ± 1.11 µM.
